The source of these data is patent US20250235437A1, “PROTEOLYSIS TARGETING CHIMERA (PROTAC) MOLECULE FOR DEGRADATION OF ENL AND CANCER THERAPY” (Baylor College of Medicine, priority 2022, published 2025).

Like-named read-outs stand apart in the source and are kept apart here. Where only a bound is given, the exact number is not on record here.

The subject of assay [1] is Hela cell. The experiment in a line: Anti-proliferative activity, Hela cells. In kind it is cell-based. Conditions: Hela cells, read-out: Anti-proliferative activity EC50, Hela.
The subject of assay [2] is Molm-13 cells. The experiment in a line: Anti-proliferative activity, Molm-13 cells. In kind it is cell-based.
In assay [3] the test system is MV4;11 cells. Kind of assay: Anti-proliferative activity, MV4;11 cells. In kind it is cell-based.
The subject of assay [4] is RPMI-8226 cells. Kind of assay: Anti-proliferative activity, RPMI-8226 cells. In kind it is cell-based.
The target of assay [5] is T1, ENL (Homo sapiens, UniProt Q03111).
T1 construct: tested whether the compounds degrade ENL and AF9 in MV4;11 leukemia cells; endogenous in cells; host or cells: MV4;11; Molm-13
T1 sequence (Q03111 1-559): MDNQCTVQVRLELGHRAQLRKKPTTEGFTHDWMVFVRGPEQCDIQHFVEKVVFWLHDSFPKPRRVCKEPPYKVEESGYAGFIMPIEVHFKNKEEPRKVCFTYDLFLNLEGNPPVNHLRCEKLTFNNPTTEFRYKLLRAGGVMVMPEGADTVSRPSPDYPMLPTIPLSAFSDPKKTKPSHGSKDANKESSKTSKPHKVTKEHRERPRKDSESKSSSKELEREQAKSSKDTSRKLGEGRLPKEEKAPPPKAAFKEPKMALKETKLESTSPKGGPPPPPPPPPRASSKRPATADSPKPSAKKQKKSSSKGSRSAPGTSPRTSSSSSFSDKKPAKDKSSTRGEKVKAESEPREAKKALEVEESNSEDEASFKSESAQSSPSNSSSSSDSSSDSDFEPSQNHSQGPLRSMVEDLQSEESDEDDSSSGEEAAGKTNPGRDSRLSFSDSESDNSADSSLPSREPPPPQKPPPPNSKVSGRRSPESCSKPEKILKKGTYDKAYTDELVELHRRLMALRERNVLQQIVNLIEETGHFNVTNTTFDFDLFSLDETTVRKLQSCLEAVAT
The experiment in a line: ENL degradation in MV4;11 cells (Western blot). In kind it is cell-based. Conditions: for DC50: read-out: DC50 (concentration at which a protein is reduced by 50%), ENL. As for the experimental part:
Next, Applicant tested whether the compounds degrade ENL and AF9 in MV4;11 leukemia cells with the .MLL1-AF4 oncogene. Upon compound treatment for 24 h, the cells were washed, lysed, and the lysates subjected to SDS-PAGE (sodium dodecyl sulphate-polyacrylamide gel electrophoresis) followed by detection with Western blot.
In general terms: Immunoblotting shows a protein as a band on a membrane.

The test system of assay [6] is Hela cell. Conditions: Hela cells, footnote b: reported in Li, et al. J Hematol Oncol, 2022, read-out: Anti-proliferative activity EC50, Hela, cited from earlier work.
The target in assay [7] is T2, ENL YEATS-H3K27ac interaction (Homo sapiens, UniProt Q03111).
T2 sequence (Q03111 1-138 limits assumed): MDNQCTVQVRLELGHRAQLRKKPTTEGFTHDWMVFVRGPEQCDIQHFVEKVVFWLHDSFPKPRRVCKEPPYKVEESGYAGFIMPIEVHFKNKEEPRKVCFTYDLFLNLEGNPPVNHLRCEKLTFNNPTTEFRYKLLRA
Kind of assay: ALPHA assay, inhibition of ENL YEATS-H3K27ac interaction. The conditions noted are these: read-out: IC50, inhibition of ENL YEATS-H3K27ac interaction.

In assay [8] the test system is MV4;11 cells. Conditions: footnote b: reported in Li, et al. J Hematol Oncol, 2022, read-out: Anti-proliferative activity EC50, MV4; cited from earlier work.
The subject of assay [9] is Molm-13 cells. Conditions: Molm13 cells, footnote b: reported in Li, et al. J Hematol Oncol, 2022; read-out: Anti-proliferative activity EC50, Molm13; cited from earlier work.
Assay [10] concerns the target T1, ENL. The experiment in a line: Nuclear and cytoplasmic ENL levels in MV4;11 cells, 4 days (Western blot). In kind it is cell-based. From the text:
Upon treatment of MV4;11 cells with these compounds for 4 days, cytoplasmic and nuclear proteins were separated and subjected to SDS-PAGE/Western blot.

Assay [11] deals with RPMI-8226 cells. The conditions noted are these: footnote b: reported in Li, et al. J Hematol Oncol, 2022, read-out: Anti-proliferative activity EC50, RPMI-8226; cited from earlier work.
Assay [12] has as its target T1, ENL. Kind of assay: Rescue of compound 1-mediated ENL degradation in MV4;11 cells. Conditions: 2 h pre-treatment then co-treatment with compound 1 (500 nM) for 24 h. In kind it is cell-based.
Assay [13] has as its system blood and solid tumor cells. Kind of assay: Anti-proliferative activity, panel of blood and solid tumor cells. In kind it is cell-based.
Where [14] appears, read: Molm13 cells, read-out: Anti-proliferative activity EC50, Molm13.
[15] abbreviates: MV4, 11 cells, read-out: Anti-proliferative activity EC50, MV4, 11.

For the molecule `C[C@H]1CCCN1Cc1nc2cc(NC(=O)c3ccc4c(cnn4CCCNC(=O)CC45CC6CC(CC(C6)C4)C5)c3)ccc2[nH]1` [SYC-2558], the EC50 with Hela cell [1] (3 days incubation) turned out to be 2.5 ± 1 µM.
Consider `C[C@H]1CCCN1Cc1nc2cc(NC(=O)c3ccc4c(cnn4CCCCCCCNc4cccc5c4C(=O)N(C4CCC(=O)NC4=O)C5=O)c3)ccc2[nH]1` (stereo partly drawn) [SYC-2554], for which the EC50 worked out at 4.4 ± 0.5 µM in the assay on Molm-13 cells [2] (setting [14]), 3.7 ± 1.6 µM in the assay on MV4;11 cells [3] (setting [15]) and 6.4 ± 0.65 µM in the assay on RPMI-8226 cells [4].
On to `C[C@H]1CCCN1Cc1nc2cc(NC(=O)c3ccc4c(cnn4CCCCCCNC(=O)CC45CC6CC(CC(C6)C4)C5)c3)ccc2[nH]1` [SYC-2522], for which the EC50 in the assay on Molm-13 cells [2] (setting [14]) stood at 1 ± 0.05 µM; with RPMI-8226 cells [4] it was 0.68 ± 0.2 µM; in the assay with Hela cell [1] (3 days incubation), 3.2 ± 0.7 µM.
On to `C[C@H]1CCCN1Cc1nc2cc(NC(=O)c3ccc4c(cnn4CCCNc4cccc5c4C(=O)N(C4CCC(=O)NC4=O)C5=O)c3)ccc2[nH]1` (stereo partly drawn) [SYC-2552], for which, at ENL [5] (24 h treatment), the DC50 amounted to 0.021 µM. The EC50 in the assay on Molm-13 cells [2] (setting [14]) was 2.5 ± 1.1 µM.
One may read the IC50 as the concentration that inhibits the measured activity by half. In the case of `C[C@H]1CCCN1Cc1nc2cc(NC(=O)c3ccc4c(cnn4CCCCCCNc4cccc5c4C(=O)N(C4CCC(=O)NC4=O)C5=O)c3)ccc2[nH]1` (stereo partly drawn) [Compound 2], the “Dmax (maximal degradation), ENL” value on ENL [5] (24 h treatment) was roughly 68%. Besides, the DC50 on ENL [5] (24 h treatment) was roughly 0.05 µM. For the same molecule, the EC50 is greater than 50 µM in the assay on Hela cell [6], 6 ± 0.91 µM in the assay on RPMI-8226 cells [4], 1.6 µM in the assay with MV4;11 cells [8] and 0.49 µM in the assay with Molm-13 cells [9]. Besides, in assay [7], the IC50 is 0.1 µM.
With `C[C@H]1CCCN1Cc1nc2cc(NC(=O)c3ccc4c(cnn4CCCCCCCCCCCNc4cccc5c4C(=O)N(C4CCC(=O)NC4=O)C5=O)c3)ccc2[nH]1` (stereo partly drawn) [SYC-2557], the ENL reduction entry on ENL [5] (FIGS. 9A-9E) was “did not reduce ENL”. Also, the EC50 in the assay on Molm-13 cells [2] (setting [14]) amounted to 0.82 ± 0.2 µM; in the assay on MV4;11 cells [3] (setting [15]) it was 0.94 ± 0.06 µM; with RPMI-8226 cells [4] (6 days incubation), 5.5 µM.
Consider `C[C@H]1CCCN1Cc1nc2cc(NC(=O)c3ccc4c(cnn4CCCCCCCCCCNc4cccc5c4C(=O)N(C4CCC(=O)NC4=O)C5=O)c3)ccc2[nH]1` (stereo partly drawn) [SYC-2556], for which, at ENL [5] (FIGS. 9A-9E), the ENL reduction result was “did not reduce ENL”. Further, the EC50 came to 1.1 ± 0.3 µM in the assay with Molm-13 cells [2] (setting [14]), 8.4 ± 1.2 µM in the assay on MV4;11 cells [3] (setting [15]) and 7.5 ± 0.19 µM in the assay on RPMI-8226 cells [4].
The corresponding values for `C[C@H]1CCCN1Cc1nc2cc(NC(=O)c3ccc4c(cnn4CCCCCCCCCNc4cccc5c4C(=O)N(C4CCC(=O)NC4=O)C5=O)c3)ccc2[nH]1` (stereo partly drawn) [SYC-2555] are “did not reduce ENL”, 4.5 ± 0.6 µM, 8.3 ± 0.8 µM and 7.9 ± 0.07 µM.
On to `O=C1CCC(N2C(=O)c3ccccc3C2=O)C(=O)N1` (stereo not drawn) [Thalidomide, thalidomide, reference compound], for which the EC50 with Molm-13 cells [2] (Homo sapiens, 168 h, Molm-13 cells, 7-day incubation, read-out: EC50, proliferation) is greater than 50 µM; in the assay on MV4;11 cells [3] (Homo sapiens, 168 h, MV4;11 cells, 7-day incubation, read-out: EC50, proliferation) it was greater than 50 µM; in the assay with RPMI-8226 cells [11] it was greater than 50 µM; in the assay with Hela cell [6] it was greater than 50 µM; in the assay with MV4;11 cells [8], greater than 50 µM; in the assay with Molm-13 cells [9], greater than 50 µM. Besides, the “ENL level in the nucleus” value at ENL [10] is “did not reduce”. For the same molecule, the “effect on compound 1-mediated ENL degradation” value on ENL [12] is “dose-dependently inhibit compound 1-mediated ENL degradation”.
For `C[C@H]1CCCN1Cc1nc2cc(NC(=O)c3ccc4c(cnn4CCCCCCCCNC(=O)CC45CC6CC(CC(C6)C4)C5)c3)ccc2[nH]1` [SYC-2521], the EC50 in the assay on Molm-13 cells [2] (setting [14]) was determined as 1 ± 0.2 µM; in the assay with RPMI-8226 cells [4], 2 ± 0.3 µM; in the assay with Hela cell [1] (3 days incubation), 2.5 ± 1.4 µM.
For `CC(C)C[C@H](NC(=O)[C@H](Cc1ccccc1)NC(=O)c1cnccn1)B(O)O` [bortezomib], the “effect on compound 1-mediated ENL degradation” value on ENL [12] was “dose-dependently inhibit compound 1-mediated ENL degradation”.
Consider `C[C@H]1CCCN1Cc1nc2cc(NC(=O)c3ccc4c(cnn4CCCCCNc4cccc5c4C(=O)N(C4CCC(=O)NC4=O)C5=O)c3)ccc2[nH]1` (stereo partly drawn) [SYC-2553], for which, on ENL [5] (24 h treatment), the DC50 is 0.0042 µM. Also, the EC50 in the assay on Molm-13 cells [2] (setting [14]) is 3.4 ± 0.4 µM; with MV4;11 cells [3] (setting [15]), 8.3 ± 1.6 µM; in the assay on RPMI-8226 cells [4], 7.2 ± 0.35 µM.
Turning to `C[C@H]1CCCN1Cc1nc2cc(NC(=O)c3ccc4c(cnn4CCCCNC(=O)CC45CC6CC(CC(C6)C4)C5)c3)ccc2[nH]1` [SYC-2523], the EC50 was 0.98 ± 0.04 µM in the assay on Molm-13 cells [2] (setting [14]), 3.8 ± 1.2 µM with Hela cell [6] (3 days incubation) and 1.4 ± 0.5 µM with RPMI-8226 cells [4] (3 days incubation).
Regarding `C[C@H]1CCCN1Cc1nc2cc(NC(=O)c3ccc4c(cnn4CCCCNc4cccc5c4C(=O)N(C4CCC(=O)NC4=O)C5=O)c3)ccc2[nH]1` (stereo partly drawn) [Compound 3], the “Dmax (maximal degradation), ENL” value on ENL [5] (24 h treatment) worked out at 89%. Further, the “concentration at which ENL is almost depleted” value on ENL [5] (24 h treatment) was roughly 500 nM. At ENL [5] (24 h treatment), the DC50 came out at 0.072 µM. For the same molecule, the EC50 in the assay on RPMI-8226 cells [4] was 19 ± 3.8 µM; in the assay on Hela cell [1] (footnote letter missing), greater than 50 µM; with MV4;11 cells [8], 1.2 µM; in the assay on Molm-13 cells [9] it was 2.1 µM. For the same molecule, the IC50 in [7] came out at 0.61 µM.
For the molecule `C[C@H]1CCCN1Cc1nc2cc(NC(=O)c3ccc4c(cnn4C)c3)ccc2[nH]1` [SGC-iMLLT, reference compound], the activity against proliferation entry in the assay on Molm-13 cells [2] (Molm-13 cells) is given as “weak activity”. Moreover, the EC50 was greater than 50 µM with RPMI-8226 cells [11], greater than 50 µM in the assay on Hela cell [6], greater than 50 µM in the assay with MV4;11 cells [8] and 17 µM in the assay with Molm-13 cells [9].
`C[C@H]1CCCN1Cc1nc2cc(NC(=O)c3ccc4c(cnn4CCCCNC(=O)CC45CC6CC(CC(C6)C4)C5)c3)ccc2[nH]1` [Compound 4]: the ENL reduction result on ENL [5] (24 h, even at 5 μM) is reported as “did not reduce ENL”. In assay [13], the “time to non-selective killing of cancerous cells” value is no more than 3 days. The EC50 in assay [13] (blood and solid tumor cells, range over cell lines, read-out: EC50, proliferation) is 1 to 3.8 µM.
